In patent US20250382344A1, “Soluble GLP1/GIP/NPY2 Receptor Triple Agonists” (Boehringer Ingelheim International GmH, priority 2024, published 2025):
Like-named read-outs stand apart in the source and are kept apart here.

What was measured:
[1] = Mouse PK after intravenous application; assay type: in vivo; conditions: plasma, male NMRI mice, intravenous 30-60 nmol/kg, non-compartmental analysis
Experimental: Pharmacokinetic parameters of the peptides were determined after intravenous application to NMRI mice (Naval Medical Research Institute mice). Male NMRI mice were obtained from Janvier Laboratories (France) weighing 30 g to 40 g. Mice were housed in standard cages with a 12:12 hours light:dark cycle and standard food and water access ad libitum. Each test peptide was dissolved in 50 mM phosphate buffer (pH 7.4)/3.5% mannitol. Intravenous application of 30-60 nmol/kg was performed via the tail vein. Serial blood samples from conscious mice were collected from the saphenous vein in EDTA-containing vials at different time points up to 56 hours post-dosing. Subsequently, plasma was prepared by centrifugation for 5 minutes at approximately 5000 rpm and stored at −20° C. until quantification of the peptide plasma levels by liquid chromatography mass spectrometry (LC-MS). Individual plasma concentration-time profiles were analysed by a non-compartmental approach and the resulting pharmacokinetic parameters were calculated.

[2] = target: T1, hGIPR (Homo sapiens, UniProt P48546); assay: hGIPR CreLuc assay in 0.5% and 100% plasma (CHO CRE-luciferase reporter cells); assay type: cell-based
T1 construct: expressed in transfected cells; host or cells: CHO CRE-luciferase reporter cells
T1 sequence (P48546 22-466): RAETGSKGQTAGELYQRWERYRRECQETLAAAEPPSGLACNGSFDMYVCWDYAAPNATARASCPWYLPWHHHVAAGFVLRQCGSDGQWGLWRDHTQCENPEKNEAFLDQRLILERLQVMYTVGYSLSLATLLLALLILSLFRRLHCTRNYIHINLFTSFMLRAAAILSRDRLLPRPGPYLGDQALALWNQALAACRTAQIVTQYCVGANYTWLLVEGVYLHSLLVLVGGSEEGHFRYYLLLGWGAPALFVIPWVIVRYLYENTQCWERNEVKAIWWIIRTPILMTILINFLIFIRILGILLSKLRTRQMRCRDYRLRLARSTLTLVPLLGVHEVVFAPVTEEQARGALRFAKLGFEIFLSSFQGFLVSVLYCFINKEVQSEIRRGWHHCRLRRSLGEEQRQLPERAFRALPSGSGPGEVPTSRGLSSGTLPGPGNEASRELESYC

[3] = target: T2, hGLP1R (Homo sapiens, UniProt P43220); assay: hGLP1R CreLuc assay in 0.5% and 100% plasma (HEK-293 CRE-luciferase reporter cells); assay type: cell-based; conditions: HEK-293 reporter cells
T2 construct: expressed in transfected cells; host or cells: HEK-293 CRE-luciferase reporter cells
T2 sequence (P43220 24-463): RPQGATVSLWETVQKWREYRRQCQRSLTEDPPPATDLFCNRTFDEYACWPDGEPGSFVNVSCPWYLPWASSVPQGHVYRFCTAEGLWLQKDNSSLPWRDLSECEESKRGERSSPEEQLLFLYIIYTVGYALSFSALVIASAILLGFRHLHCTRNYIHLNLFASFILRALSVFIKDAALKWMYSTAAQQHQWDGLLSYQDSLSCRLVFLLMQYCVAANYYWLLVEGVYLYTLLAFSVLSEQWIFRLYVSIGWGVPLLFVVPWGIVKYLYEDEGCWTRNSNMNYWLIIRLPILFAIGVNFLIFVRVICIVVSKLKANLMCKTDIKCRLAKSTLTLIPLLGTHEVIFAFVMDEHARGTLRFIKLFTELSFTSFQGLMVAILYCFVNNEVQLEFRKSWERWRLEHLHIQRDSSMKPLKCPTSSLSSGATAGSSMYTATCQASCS

[4] = target: T3, hNPY2R (Homo sapiens, UniProt P49146); assay: hNPY2R CreLuc assay in 0.5% and 100% plasma (HEK-293 CRE-luciferase reporter cells); assay type: cell-based; conditions: 0.5% human plasma, HEK-293 reporter cells, read-out: hNPY2R 0.5% hP
T3 construct: expressed in transfected cells; host or cells: HEK-293 CRE-luciferase reporter cells
T3 sequence (P49146 1-381): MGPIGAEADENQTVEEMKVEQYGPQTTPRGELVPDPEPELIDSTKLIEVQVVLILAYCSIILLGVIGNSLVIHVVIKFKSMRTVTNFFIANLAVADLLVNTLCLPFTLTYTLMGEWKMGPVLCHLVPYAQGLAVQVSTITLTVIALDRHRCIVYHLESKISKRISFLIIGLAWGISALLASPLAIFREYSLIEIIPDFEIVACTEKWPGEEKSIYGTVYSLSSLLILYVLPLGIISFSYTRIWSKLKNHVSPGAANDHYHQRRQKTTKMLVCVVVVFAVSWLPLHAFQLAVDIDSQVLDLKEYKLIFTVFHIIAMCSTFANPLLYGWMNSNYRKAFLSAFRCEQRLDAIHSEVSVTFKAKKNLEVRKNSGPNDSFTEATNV

[5] = test system: Normal NMRI Mice; assay: Effect on acute food intake in normal NMRI mice; assay type: in vivo; conditions: male NMRI mice, single subcutaneous dose 100 nmol/kg, 24 hours food intake normalized to vehicle group
Experimental: Male NMRI mice were obtained from Janvier (Janvier Labs, France) or from Charles River (Charles River Research Models & Services Germany GmbH) at the age of 3 weeks. The animals get a microchip (Datamars, Slim Microchip T-SL) for individual identification after delivery. They were housed with 4 mice per cage under a 12/12 dark-light cycle, light off at 3 p.m. Room temperature was controlled to 21° C.+/−1° C. and humidity 60%+/−20%. Mice had ad libitum access to regular rodent chow (KLIBA Nafag 3040 or Altromin 1324, Brogaarden, Denmark) and tap water.
Latest transfer into the HM2-System of MBRose, Denmark (real-time monitoring system of food- and water intake) of the animals 5 days before study start, to allow acclimatization to experimental conditions. As the animals were uniquely identified with the microchips, each individual animal was identified by its own microchip upon entry and exit from the food channel via antennae. Randomization of the mice for each study group (n=8; age earliest 6 weeks old) was based on food intake (middle of last three days 24 h-interval) and bodyweight directly before start of the study. A vehicle treated (50 mM phosphate buffer pH 7.4 with 3.5% mannitol) group was included in each experiment. To have the same nutrition standard for each animal the food access was locked eight hours before dark phase. One hour before night, the animals were once treated subcutaneously with the test peptide. Food intake was reported hourly for a period of 24 hours.

[6] = Solubility in 0.1 M phosphate buffer at pH 7; assay type: physicochemical; conditions: 0.1 M phosphate buffer at pH 7, 10 mg/mL final peptide concentration, shaking 2 hours at room temperature, peptides as TFA-salts; measured sample pH 6.5-7.0
[7] = 0.5% human plasma, read-out: hGIPR 0.5% hP
[8] = 0.5% human plasma, read-out: hGLP1R 0.5% hP

MRT [1] | EC50 [2, 7] | EC50 [3, 8] | EC50 ([3]; 100% human plasma, read-out: hGLP1R 100% hP) | EC50 [4] | Compound | EC50 ([2]; hGIPR 0.5% hP (nM), 0.5% human plasma) | EC50 ([2]; hGIPR 100% hP (nM), 100% human plasma) | Acute Food Intake 24 hours 100 nmol/kg [% CTL] [5] | solubility at 2 h [6]
5.3 h | 0.4 nM | 1 nM | 4 nM | 32.8 nM | CC[C@H](C)[C@H](NC(=O)[C@H](CC(C)C)NC(=O)[C@H](Cc1c[nH]cn1)NC(=O)[C@H](CCCNC(=N)N)NC(=O)[C@@H](NC(=O)[C@H](Cc1ccccc1)NC(=O)[C@H](C)NC(=O)C(C)(C)NC(=O)[C@H](CCC(N)=O)NC(=O)[C@H](C)NC(=O)[C@H](CCC(N)=O)NC(=O)[C@H](CCCCN)NC(=O)[C@H](CCC(=O)O)NC(=O)[C@H](CC(C)C)NC(=O)C(C)(C)NC(=O)[C@@H](NC(=O)[C@H](CO)NC(=O)[C@H](Cc1ccc(O)cc1)NC(=O)[C@H](CC(=O)O)NC(=O)[C@H](CO)NC(=O)[C@@H](NC(=O)[C@H](Cc1ccccc1)NC(=O)[C@@H](NC(=O)CNC(=O)[C@H](CCC(=O)O)NC(=O)C(C)(C)NC(=O)[C@@H](N)Cc1ccc(O)cc1)[C@@H](C)O)[C@@H](C)O)[C@@H](C)CC)C(C)C)C(=O)N[C@@H](CC(N)=O)C(=O)N[C@@H](CCCCNC(=O)CC[C@H](NC(=O)CC[C@H](NC(=O)CC[C@H](NC(=O)CC[C@H](NC(=O)CC[C@H](NC(=O)CC[C@H](NC(=O)CCCCCCCCCCCCCCCCC(=O)O)C(=O)O)C(=O)O)C(=O)O)C(=O)O)C(=O)O)C(=O)O)C(=O)NC(C)(C)C(=O)N[C@H](C(=O)N[C@@H](CCCNC(=N)N)C(=O)N[C@@H](CCC(N)=O)C(=O)N[C@@H](CCCNC(=N)N)C(=O)N[C@@H](Cc1ccc(O)cc1)C(N)=O)[C@@H](C)O [Compound 134, Y-Aib-E-G-T-F-T-S-D-Y-S-I-Aib-L-E-K-Q-A-Q-Aib-A-F-V-R-H-L-I-N-K(1,3)-Aib-T-R-Q-R-Y-NH2.C18DA-gGlu-gGlu-gGlu-gGlu-gGlu-gGlu(1,2)] |  |  |  | 
 |  |  |  |  | CC[C@H](C)[C@H](NC(=O)[C@H](CC(C)C)NC(=O)[C@H](Cc1c[nH]cn1)NC(=O)[C@H](CCCNC(=N)N)NC(=O)[C@@H](NC(=O)[C@H](Cc1ccccc1)NC(=O)[C@H](C)NC(=O)C(C)(C)NC(=O)[C@H](CCC(N)=O)NC(=O)[C@H](C)NC(=O)[C@H](CCC(N)=O)NC(=O)[C@H](CCCCN)NC(=O)[C@H](CCC(=O)O)NC(=O)[C@H](CC(C)C)NC(=O)C(C)(C)NC(=O)[C@@H](NC(=O)[C@H](CO)NC(=O)[C@H](CC(C)C)NC(=O)[C@H](CC(=O)O)NC(=O)[C@H](CO)NC(=O)[C@@H](NC(=O)[C@H](Cc1ccccc1)NC(=O)[C@@H](NC(=O)CNC(=O)[C@H](CCC(=O)O)NC(=O)C(C)(C)NC(=O)[C@@H](N)Cc1ccc(O)cc1)[C@@H](C)O)[C@@H](C)O)[C@@H](C)CC)C(C)C)C(=O)N[C@@H](CC(N)=O)C(=O)N[C@@H](CCCCNC(=O)[C@@H](N)CCCCNC(=O)CC[C@H](NC(=O)CC[C@H](NC(=O)CC[C@H](NC(=O)CC[C@H](NC(=O)CC[C@H](NC(=O)CC[C@H](NC(=O)CCCCCCCCCCCCCCCCCCC(=O)O)C(=O)O)C(=O)O)C(=O)O)C(=O)O)C(=O)O)C(=O)O)C(=O)NC(C)(C)C(=O)N[C@H](C(=O)N[C@@H](CCCNC(=N)N)C(=O)N[C@@H](CCC(N)=O)C(=O)N[C@@H](CCCNC(=N)N)C(=O)N[C@@H](Cc1ccc(O)cc1)C(N)=O)[C@@H](C)O [Compound 20, Y-Aib-E-G-T-F-T-S-D-L-S-I-Aib-L-E-K-Q-A-Q-Aib-A-F-V-R-H-L-I-N-K(1,3)-Aib-T-R-Q-R-Y-NH2.C20DA-gGlu-gGlu-gGlu-gGlu-gGlu-gGlu-eLys(1,2)] | 0.4 nM | 6.9 nM | 79 % CTL | 8500 µg/mL
7.8 h | 0.4 nM | 0.6 nM |  | 16.8 nM | CC[C@H](C)[C@H](NC(=O)[C@H](CC(C)C)NC(=O)[C@H](Cc1c[nH]cn1)NC(=O)[C@H](CCCNC(=N)N)NC(=O)[C@@H](NC(=O)[C@H](Cc1ccccc1)NC(=O)[C@H](CCC(=O)O)NC(=O)C(C)(C)NC(=O)[C@H](CCC(N)=O)NC(=O)[C@H](C)NC(=O)[C@H](CCC(N)=O)NC(=O)[C@H](CCCCN)NC(=O)[C@H](CCC(=O)O)NC(=O)[C@H](CC(C)C)NC(=O)C(C)(C)NC(=O)[C@@H](NC(=O)[C@H](CO)NC(=O)[C@H](Cc1ccc(O)cc1)NC(=O)[C@H](CC(=O)O)NC(=O)[C@H](CO)NC(=O)[C@@H](NC(=O)[C@H](Cc1ccccc1)NC(=O)[C@@H](NC(=O)CNC(=O)[C@H](CCC(=O)O)NC(=O)C(C)(C)NC(=O)[C@@H](N)Cc1ccc(O)cc1)[C@@H](C)O)[C@@H](C)O)[C@@H](C)CC)C(C)C)C(=O)N[C@@H](CC(N)=O)C(=O)N[C@@H](CCCCNC(=O)[C@@H](N)CCCCNC(=O)CC[C@H](NC(=O)CC[C@H](NC(=O)CC[C@H](NC(=O)CC[C@H](NC(=O)CC[C@H](NC(=O)CC[C@H](NC(=O)CCCCCCCCCCCCCCCCC(=O)O)C(=O)O)C(=O)O)C(=O)O)C(=O)O)C(=O)O)C(=O)O)C(=O)N[C@@H](CC(C)C)C(=O)N[C@H](C(=O)N[C@@H](CCCNC(=N)N)C(=O)N[C@@H](CCC(N)=O)C(=O)N[C@@H](CCCNC(=N)N)C(=O)N[C@@H](Cc1ccc(O)cc1)C(N)=O)[C@@H](C)O [Compound 83, Y-Aib-E-G-T-F-T-S-D-Y-S-I-Aib-L-E-K-Q-A-Q-Aib-E-F-V-R-H-L-I-N-K(1,3)-L-T-R-Q-R-Y-NH2.C18DA-gGlu-gGlu-gGlu-gGlu-gGlu-gGlu-eLys(1,2)] |  |  |  | 3800 µg/mL
